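Cells were grown in 96-well plates and exposed to each compound for 48 hours at five concentrations; endpoints were interpolated linearly between bracketing concentrations, or set to the highest concentration if not reached. GI50 marks 50% less growth.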 Calls of active or inactive are those of the source. Cut-off read from the data, not from the text of the source: active = GI50 up to about 1.1 µM and inactive = higher.
Tests used:
Test in all cases: growth of human tumour cells (NCI), 48 h
NCI/ADR-RES = test system: NCI/ADR-RES
HL-60 = test system: HL-60
HT-29 = test system: HT-29
A549 = test system: A549
NCI-H522 = test system: NCI-H522
OVCAR-3 = test system: OVCAR-3
SK-OV-3 = test system: SK-OV-3
UO-31 = test system: UO-31
HCT-116 = test system: HCT-116
SW-620 = test system: SW-620
SK-MEL-5 = test system: SK-MEL-5
OVCAR-8 = test system: OVCAR-8
NCI-H226 = test system: NCI-H226
SNB-19 = test system: SNB-19
KM12 = test system: KM12
HOP-92 = test system: HOP-92
RXF 393 = test system: RXF 393
786-0 = test system: 786-0
MDA-MB-231 = test system: MDA-MB-231
EKVX = test system: EKVX
Malme-3M = test system: Malme-3M
IGROV-1 = test system: IGROV-1
ACHN = test system: ACHN
SF-268 = test system: SF-268
SNB-75 = test system: SNB-75
HOP-62 = test system: HOP-62
MDA-N = test system: MDA-N
SF-295 = test system: SF-295
OVCAR-4 = test system: OVCAR-4
U-251 = test system: U-251
COLO 205 = test system: COLO 205
CAKI-1 = test system: CAKI-1
NCI-H460 = test system: NCI-H460
SF-539 = test system: SF-539
SK-MEL-2 = test system: SK-MEL-2
TK-10 = test system: TK-10
SK-MEL-28 = test system: SK-MEL-28
MDA-MB-435 = test system: MDA-MB-435
K562 = test system: K562
UACC-62 = test system: UACC-62
SN12C = test system: SN12C
M14 = test system: M14
MOLT-4 = test system: MOLT-4
DU-145 = test system: DU-145
HCT-15 = test system: HCT-15
SR = test system: SR
PC-3 = test system: PC-3
OVCAR-5 = test system: OVCAR-5
CCRF-CEM = test system: CCRF-CEM
UACC-257 = test system: UACC-257
T47D = test system: T47D
LOX IMVI = test system: LOX IMVI
NCI-H23 = test system: NCI-H23
HCC 2998 = test system: HCC 2998
BT-549 = test system: BT-549
MCF7 = test system: MCF7
RPMI-8226 = test system: RPMI-8226

SMILES: Cc1ccc(-n2cc(-c3ccc(Cl)cc3)c3c(NN)ncnc32)cc1
- GI50 (NCI/ADR-RES): 3.64 µM (inactive)
- GI50 (HL-60): 2.1 µM (inactive)
- GI50 (HT-29): 4.48 µM (inactive)
- GI50 (A549): 3.26 µM (inactive)
- GI50 (NCI-H522): 3.58 µM (inactive)
- GI50 (OVCAR-3): 0.357 µM (active)
- GI50 (SK-OV-3): 5.14 µM (inactive)
- GI50 (UO-31): 3.82 µM (inactive)
- GI50 (HCT-116): 2.4 µM (inactive)
- GI50 (SW-620): 6.07 µM (inactive)
- GI50 (SK-MEL-5): 1.57 µM (inactive)
- GI50 (OVCAR-8): 3.24 µM (inactive)
- GI50 (NCI-H226): 2.38 µM (inactive)
- GI50 (SNB-19): 2.93 µM (inactive)
- GI50 (KM12): 10.7 µM (inactive)
- GI50 (HOP-92): 2.97 µM (inactive)
- GI50 (RXF 393): 2.75 µM (inactive)
- GI50 (786-0): 2.55 µM (inactive)
- GI50 (MDA-MB-231): 6.89 µM (inactive)
- GI50 (EKVX): 3.3 µM (inactive)
- GI50 (Malme-3M): 3.1 µM (inactive)
- GI50 (IGROV-1): 1.85 µM (inactive)
- GI50 (ACHN): 3.31 µM (inactive)
- GI50 (SF-268): 2.64 µM (inactive)
- GI50 (SNB-75): 1.39 µM (inactive)
- GI50 (HOP-62): 2.43 µM (inactive)
- GI50 (MDA-N): 8.83 µM (inactive)
- GI50 (SF-295): 3.36 µM (inactive)
- GI50 (OVCAR-4): 1.73 µM (inactive)
- GI50 (U-251): 1.82 µM (inactive)
- GI50 (COLO 205): 1.72 µM (inactive)
- GI50 (CAKI-1): 4.33 µM (inactive)
- GI50 (NCI-H460): 3.4 µM (inactive)
- GI50 (SF-539): 2.51 µM (inactive)
- GI50 (SK-MEL-2): 15.1 µM (inactive)
- GI50 (TK-10): 12.4 µM (inactive)
- GI50 (SK-MEL-28): 3.66 µM (inactive)
- GI50 (MDA-MB-435): 4.65 µM (inactive)
- GI50 (K562): 2.88 µM (inactive)
- GI50 (UACC-62): 2.67 µM (inactive)
- GI50 (SN12C): 2.84 µM (inactive)
- GI50 (M14): 1.38 µM (inactive)
- GI50 (MOLT-4): 2.36 µM (inactive)
- GI50 (DU-145): 3.49 µM (inactive)
- GI50 (HCT-15): 4.4 µM
- GI50 (SR): 3.41 µM (inactive)
- GI50 (PC-3): 5.55 µM (inactive)
- GI50 (OVCAR-5): 6.43 µM (inactive)
- GI50 (CCRF-CEM): 0.566 µM (active)
- GI50 (UACC-257): 3.97 µM (inactive)
- GI50 (T47D): 2.55 µM (inactive)
- GI50 (LOX IMVI): 4.68 µM (inactive)
- GI50 (NCI-H23): 3.04 µM (inactive)
- GI50 (HCC 2998): 2.89 µM (inactive)

SMILES: CN1C(C(=O)Nc2ccccn2)=C(O)c2ccccc2S1(=O)=O [PIROXICAM]
- GI50 (NCI/ADR-RES): > 100 µM (inactive)
- GI50 (HL-60): > 100 µM (inactive)
- GI50 (HT-29): > 100 µM (inactive)
- GI50 (A549): > 100 µM (inactive)
- GI50 (NCI-H522): > 100 µM (inactive)
- GI50 (OVCAR-3): > 100 µM (inactive)
- GI50 (SK-OV-3): > 100 µM (inactive)
- GI50 (UO-31): > 100 µM (inactive)
- GI50 (HCT-116): > 100 µM (inactive)
- GI50 (SW-620): > 100 µM (inactive)
- GI50 (SK-MEL-5): > 100 µM (inactive)
- GI50 (OVCAR-8): > 100 µM (inactive)
- GI50 (NCI-H226): > 100 µM (inactive)
- GI50 (SNB-19): > 100 µM (inactive)
- GI50 (KM12): > 100 µM (inactive)
- GI50 (RXF 393): > 100 µM (inactive)
- GI50 (786-0): > 100 µM (inactive)
- GI50 (EKVX): > 100 µM (inactive)
- GI50 (Malme-3M): > 100 µM (inactive)
- GI50 (ACHN): > 100 µM (inactive)
- GI50 (SF-268): > 100 µM (inactive)
- GI50 (SNB-75): > 100 µM (inactive)
- GI50 (BT-549): 15.3 µM (inactive)
- GI50 (HOP-62): > 100 µM (inactive)
- GI50 (MDA-N): > 100 µM (inactive)
- GI50 (SF-295): > 100 µM (inactive)
- GI50 (OVCAR-4): > 100 µM (inactive)
- GI50 (U-251): > 100 µM (inactive)
- GI50 (COLO 205): > 100 µM (inactive)
- GI50 (CAKI-1): > 100 µM (inactive)
- GI50 (SF-539): > 100 µM (inactive)
- GI50 (SK-MEL-2): > 100 µM (inactive)
- GI50 (TK-10): > 100 µM (inactive)
- GI50 (SK-MEL-28): > 100 µM (inactive)
- GI50 (MDA-MB-435): > 100 µM (inactive)
- GI50 (UACC-62): > 100 µM (inactive)
- GI50 (SN12C): > 100 µM (inactive)
- GI50 (M14): > 100 µM (inactive)
- GI50 (MOLT-4): > 100 µM (inactive)
- GI50 (DU-145): > 100 µM (inactive)
- GI50 (HCT-15): > 100 µM
- GI50 (SR): > 100 µM (inactive)
- GI50 (PC-3): > 100 µM (inactive)
- GI50 (MCF7): > 100 µM (inactive)
- GI50 (OVCAR-5): > 100 µM (inactive)
- GI50 (CCRF-CEM): > 100 µM (inactive)
- GI50 (RPMI-8226): > 100 µM (inactive)
- GI50 (UACC-257): > 100 µM (inactive)
- GI50 (T47D): > 100 µM (inactive)
- GI50 (LOX IMVI): > 100 µM (inactive)
- GI50 (NCI-H23): > 100 µM (inactive)

From ChEMBL document CHEMBL1201862, “PubChem BioAssay data set” (2004)
